From patent US10981932B2, “Macrocyclic indole derivatives” (Bayer Aktiengesellschaft, priority 2016, dated 2021)
Structures can show the parent of a compound that is named as a salt. Where two headings read alike, the source gives them in different places.

Experiments:
[1] = tested on: A2780; assay: Anti-proliferative effect (CellTiter-Glo, 72 h), A2780; format: cell-based; details: A2780 cells, median, read-out: IC50 antiproliferation assay A2780 [M] (median)
Summary of the method: (§1)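 CTG luminescence read-out after 72 h compound exposure, 37 °C, humidified. Time-zero reference plate read at plating.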

[2] = tested on: SUDHL5; assay: Induction of caspase-3/7 activity (Caspase-Glo 3/7), SUDHL5; format: cell-based; details: caspase-3/7 induction, SUDHL5 cells, 3 h treatment, median
Summary of the method: (§2)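 Caspase-Glo 3/7 luminescence, 3 h compound exposure, 37 °C, humidified. Minus medium-only blank. EC50 fit: C0=1, plateau = reference max induction.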

[3] = tested on: MV-4-11; assay: Anti-proliferative effect (CellTiter-Glo, 72 h), MV-4-11; format: cell-based; details: MV-4-11 cells, median, read-out: IC50 antiproliferation assay MV-4-11 [M] (median)
Summary of the method: as §1

[4] = tested on: SUDHL10; assay: Induction of caspase-3/7 activity (Caspase-Glo 3/7), SUDHL10; format: cell-based; details: caspase-3/7 induction, SUDHL10 cells, 3 h treatment, median
Summary of the method: as §2

[5] = target: MCL-1 (Homo sapiens, UniProt Q07820); assay: Protein-protein interaction assay MCL-1/Noxa BH3 peptide (MCL-1 assay), TR-FRET; format: binding; details: MBP-MCL-1 / Noxa BH3-derived peptide, median
Sequence of MCL-1 (Q07820 whole entry): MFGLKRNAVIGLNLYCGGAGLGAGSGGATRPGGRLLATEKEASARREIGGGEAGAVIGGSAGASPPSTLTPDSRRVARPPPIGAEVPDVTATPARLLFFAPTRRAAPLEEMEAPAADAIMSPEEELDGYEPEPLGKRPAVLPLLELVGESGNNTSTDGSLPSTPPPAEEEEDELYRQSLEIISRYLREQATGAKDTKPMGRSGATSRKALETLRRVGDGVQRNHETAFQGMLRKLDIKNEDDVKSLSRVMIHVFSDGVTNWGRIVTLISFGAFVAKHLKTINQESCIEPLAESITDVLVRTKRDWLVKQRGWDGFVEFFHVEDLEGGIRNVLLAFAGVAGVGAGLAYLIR
Summary of the method: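 Displacement of the biotinylated Noxa BH3 peptide from MBP-tagged human MCL-1 (1 nM) is detected by time-resolved FRET. Compounds are tested in duplicate across eleven concentrations up to 20 μM, incubated 1 h at 22 °C and overnight at 4 °C, and IC50 is fitted with a four-parameter equation.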

[6] = tested on: SUDHL5; assay: Induction of cytotoxicity (CellTiter-Glo, 5 h), SUDHL5
[7] = tested on: SUDHL5; assay: Anti-proliferative effect (CellTiter-Glo, 72 h), SUDHL5; format: cell-based; details: SUDHL5 cells, antiproliferation, median, read-out: Antiproli SUDHL5 [M] (median)
Summary of the method: as §1

[8] = tested on: SUDHL10; assay: Anti-proliferative effect (CellTiter-Glo, 72 h), SUDHL10; format: cell-based; details: SUDHL10 cells, antiproliferation, 72 h incubation, median, read-out: Antiproli SUDHL10 [M] (median)
Summary of the method: as §1

[9] = tested on: SUDHL10; assay: Induction of cytotoxicity (CellTiter-Glo, 5 h), SUDHL10
[10] = read-out: Cytotox SUDHL5 [M] (median), SUDHL5 cells, cytotoxicity induction, CellTiter-Glo, 5 h incubation, median
[11] = read-out: Cytotox SUDHL10 [M] (median), SUDHL10 cells, cytotoxicity induction, CellTiter-Glo, 5 h incubation, median
[12] = read-out: Cytotox SUDHL5 [M] (median), SUDHL5 cells, cytotoxicity induction, CellTiter-Glo, 5 h, median
[13] = read-out: Cytotox SUDHL10 [M] (median), SUDHL10 cells, cytotoxicity induction, CellTiter-Glo, 5 h, median
[14] = Homo sapiens, SU-DHL-5, 72 h, 72 h
[15] = Homo sapiens, SU-DHL10, 5 h, read-out: Cytotox SUDHL10 [M] (median), SUDHL10 cells, cytotoxicity induction, CellTiter-Glo, 5 h, median

Structure (SMILES)	IC50 [1] [M]	EC50 [2] [µM]	IC50 ([3]; Homo sapiens, MV4-11, 72 h) [M]	EC50 [4] [µM]	IC50 [5] [µM]	IC50 [6, 10] [M]	IC50 ([7]; 72 h incubation) [M]	IC50 [9, 11] [M]	IC50 ([1]; Homo sapiens, A2780, 72 h) [M]	IC50 [3] [M]	IC50 [6, 12] [M]	also measured
Cc1cc(OCCCc2c(C(=O)O)n3c4c(cccc24)-c2c(C)nn(C)c2COCCC3)cc(C)c1Cl (single isomer, unassigned; enantiomer 2) [Example 015, 1-[3-(4-chloro-3,5-dimethylphenoxy)propyl]-9,11-dimethyl-5,6,8,9-tetrahydro-4H-pyrazolo[4′,3′:8,9][1,5]oxazecino[7,6,5-hi]indole-2-carboxylic acid-N-ethylethanamine Salt (Enantiomer 2)]	1.23e-05	25.7	1.33e-05	29.2	0.00958	2.1e-05	1.13e-05	2.87e-05	–	–	–	IC50 [8]: 8.48e-06 M
Cc1c2c(nn1C)CCCCCCn1c(C(=O)O)c(CCCOc3cccc4ccccc34)c3cccc-2c31 (single isomer, unassigned; enantiomer 1) [Example 191, 2,3-dimethyl-7-[3-(1-naphthyloxy)propyl]-10,11,12,13,14,15-hexahydro-2H-pyrazolo[4′,3′:4,5]azacycloundecino[3,2,1-hi]indole-8-carboxylic acid-N-ethylethanamine Salt (Enantiomer 1)]	–	2.09	2.58e-06	7.16	0.00273	1.87e-06	3.23e-06	5.01e-06	2.55e-05	–	–	IC50 ([8]; Homo sapiens, SU-DHL10, 72 h): 4.64e-06 M
Cn1nc(CN2CC(F)(F)C2)c2c1COCCCCn1c(C(=O)O)c(CCCOc3cccc4ccccc34)c3cccc-2c31 (single isomer, unassigned; enantiomer 1) [Example 181, 3-[(3,3-difluoroazetidin-1-yl)methyl]-1-methyl-7-[3-(naphthalen-1-yloxy)propyl]-1,10,11,12,13,15-hexahydropyrazolo[4′,3′:9,10][1,6]oxazacycloundecino[8,7,6-hi]indole-8-carboxylic acid-N-ethylethanamine Salt (Enantiomer 1)]	–	5.11	1.8e-05	16.1	0.00777	6.68e-06	6.23e-06	–	2.46e-05	–	–	IC50 ([8]; Homo sapiens, SU-DHL10, 72 h): 8.23e-06 M; IC50 ([9]; Homo sapiens, SU-DHL10, 5 h, read-out: Cytotox SUDHL10 [M] (median), SUDHL10 cells, cytotoxicity induction, CellTiter-Glo, 5 h incubation, median): 1.67e-05 M
Cc1nn(C)c2c1-c1cccc3c(CCCOc4cccc5c4CCCC5)c(C(=O)O)n(c13)CCCCOC2 (single isomer, unassigned; enantiomer 1) [Example 007, 1,3-dimethyl-7-[3-(5,6,7,8-tetrahydronaphthalen-1-yloxy)propyl]-1,10,11,12,13,15-hexahydropyrazolo[4′,3′:9,10][1,6]oxazacycloundecino[8,7,6-hi]indole-8-carboxylic acid-N-ethylethanamine Salt (Enantiomer 1)]	3.25e-05	2.85	8.03e-06	12	0.000987	3.54e-06	5.16e-06	6e-06	> 3.3e-05	–	–	IC50 [8]: 3.1e-06 M
Cc1c2c(nn1C)COCCCCn1c(C(=O)O)c(CCCOc3cccc4cc(Cl)ccc34)c3cccc-2c31 (single isomer, unassigned) [Example 297, (−)-7-{3-[(6-chloronaphthalen-1-yl)oxy]propyl}-2,3-dimethyl-2,10,11,12,13,15-hexahydropyrazolo[4′3′:9,10][1,6]oxazacycloundecino[8,7,6-hi]indole-8-carboxylic acid-N-ethylethanamine Salt]	1.33e-05	> 33	–	> 33	0.126	–	–	–	–	1.9e-05	2.83e-05	IC50 ([7]; 72 h): 5.16e-06 M; IC50 [9, 13]: 2.77e-05 M
Cn1nc2c(c1CN1CCOCC1)-c1cccc3c(CCCOc4cccc5ccccc45)c(C(=O)O)n(c13)CCCCOC2 (single isomer, unassigned; enantiomer 1) [Example 079, 2-methyl-3-(morpholin-4-ylmethyl)-7-[3-(naphthalen-1-yloxy)propyl]-2,10,11,12,13,15-hexahydropyrazolo[4′,3′:9,10][1,6]oxazacycloundecino[8,7,6-hi]indole-8-carboxylic acid-N-ethylethanamine Salt (Enantiomer 1)]	–	3.85	–	9.85	0.00325	4.24e-06	6.7e-06	8.83e-06	1.66e-05	2.37e-06	–	–
CCc1nn(C)c2c1-c1cccc3c(CCCOc4cccc5c(F)cccc45)c(C(=O)O)n(c13)CCCCOC2 (racemic) [Example 298, (rac)-3-ethyl-7-{3-[(5-fluoronaphthalen-1-yl)oxy]propyl}-1-methyl-1,10,11,12,13,15-hexahydropyrazolo[4′,3′:9,10][1,6]oxazacycloundecino[8,7,6-hi]indole-8-carboxylic Acid]	–	–	9.4e-06	–	0.0017	–	–	–	2.66e-05	–	–	EC50 ([2]; Homo sapiens, SU-DHL-5, 3 h): 8.78 µM; EC50 ([4]; Homo sapiens, SU-DHL10, 3 h): 20.5 µM; IC50 ([6]; Homo sapiens, SU-DHL-5, 5 h, read-out: Cytotox SUDHL5 [M] (median), SUDHL5 cells, cytotoxicity induction, CellTiter-Glo, 5 h, median): 9.1e-06 M; IC50 [7, 14]: 1.09e-05 M; IC50 [9, 15]: 2.27e-05 M
Cn1nc(COCc2ccc(C#N)cc2)c2c1COCCCCn1c(C(=O)O)c(CCCOc3cccc4ccccc34)c3cccc-2c31 (single isomer, unassigned; enantiomer 2) [Example 348, 3-{[(4-cyanobenzyl)oxy]methyl}-1-methyl-7-[3-(naphthalen-1-yloxy)propyl]-1,10,11,12,13,15-hexahydropyrazolo[4′,3′:9,10][1,6]oxazacycloundecino[8,7,6-hi]indole-8-carboxylic acid-N-ethylethanamine Salt (Enantiomer 2)]	1.46e-05	14.6	–	16.8	0.0196	–	–	–	–	4.15e-06	1.38e-05	IC50 ([7]; 72 h): 5.12e-06 M; IC50 [9, 13]: 2.81e-05 M
Cn1nc2c(c1OC(F)F)-c1cccc3c(CCCOc4cccc5ccccc45)c(C(=O)O)n(c13)CCCCOC2 (single isomer, unassigned) [Example 236, (+)-3-(difluoromethoxy)-2-methyl-7-[3-(naphthalen-1-yloxy)propyl]-2,10,11,12,13,15-hexahydropyrazolo[4′,3′:9,10][1,6]oxazacycloundecino[8,7,6-hi]indole-8-carboxylic Acid]	2.6e-05	11.2	–	25.1	0.00678	1.06e-05	9.48e-06	2.52e-05	–	2.19e-05	–	–
CCc1nn(C)c2c1-c1cccc3c(CCCOc4cccc5c(F)cccc45)c(C(=O)O)n(c13)CCCCOC2 (single isomer, unassigned) [Example 299, 3-ethyl-7-{3-[(5-fluoronaphthalen-1-yl)oxy]propyl}-1-methyl-1,10,11,12,13,15-hexahydropyrazolo[4′,3′:9,10][1,6]oxazacycloundecino[8,7,6-hi]indole-8-carboxylic Acid]	–	> 33	2.63e-05	–	0.166	–	–	–	2.32e-05	–	> 3.3e-05	EC50 ([4]; Homo sapiens, SU-DHL10, 3 h): > 33 µM; IC50 [7, 14]: 7.39e-06 M; IC50 [9, 15]: > 3.3e-05 M
